The source made the active and inactive calls. The rule behind the calls is not given here.
Key:
[1] = Volume of distribution at steady state in male Sprague-Dawley rat at 20 mg/kg, iv measured after 24 hrs by LC-MS/MS analysis; type: ADME, organism-based; settings: in vivo, read-out: Vdss
NCI-H460 [2] = assay: Inhibition of ERK phosphorylation in human NCI-H460 cells exogenously expressing wildtype DOT1L (unknown origin) (1 to 416 residues) at 5 uM by Western blot analysis; type: cell-based
NCI-H460 [3] = assay: Inhibition of colony formation in DOT1L knockdown human NCI-H460 cells at 2.5 to 5 uM incubated for 7 to 14 days by crystal violet staining based light microscopic analysis; type: functional, cell-based; settings: dose 2.5-5 µM, time 7-14 day
NCI-H460 [4] = assay: Antimigratory activity in human NCI-H460 cells exogenously expressing DOT1L R231Q mutant (unknown origin) (1 to 416 residues) assessed as decrease in number of migrating cells at 2.5 to 5 uM measured after 72 hrs by wound healing assay; type: functional, cell-based; settings: dose 2.5-5 µM
NCI-H460 [5] = assay: Antimigratory activity in human NCI-H460 cells exogenously expressing wildtype DOT1L (unknown origin) (1 to 416 residues) assessed as decrease in number of migrating cells at 2.5 to 5 uM measured after 72 hrs by wound healing assay; type: functional, cell-based; settings: dose 2.5-5 µM
NCI-H460 [6] = assay: Effect on H3K4me1 expression in human NCI-H460 cells exogenously expressing DOT1L R231Q mutant (unknown origin) (1 to 416 residues) at 5 uM by Western blot analysis; type: functional, cell-based
NCI-H460 [7] = assay: Antiproliferative activity against human NCI-H460 cells harboring DOT1L R231Q mutant (unknown origin) (1 to 416 residues) assessed as inhibition of cell proliferation incubated for 72 hrs by CCK-8 assay; type: functional, cell-based; settings: NCI-H460, 72 h
[8] = AUC (0 to t) in male Sprague-Dawley rat at 20 mg/kg, iv measured after 24 hrs by LC-MS/MS analysis; type: ADME, organism-based; settings: in vivo
[9] = MRT (0 to infinity) in male Sprague-Dawley rat at 20 mg/kg, ip measured after 24 hrs by LC-MS/MS analysis; type: ADME, organism-based; settings: in vivo
NCI-H460 [10] = assay: Antiinvasive activity against human NCI-H460 cells exogenously expressing DOT1L R231Q mutant (unknown origin) (1 to 416 residues) assessed as inhibition of cell invasion at 2.5 to 5 uM incubated for 72 hrs by crystal violet staining based transwell invasion assay; type: functional; settings: dose 2.5-5 µM
[11] = Toxicity in male BALB/c-nu mouse model xenografted with human NCI-H460 cells harboring DOT1L R231Q mutant assessed as effect on liver viscera index at 20 mg/kg, ip administered five times a week for 3 weeks; type: organism-based; settings: in vivo, 504 h
[12] = AUC (0 to infinity) in male Sprague-Dawley rat at 20 mg/kg, iv measured after 24 hrs by LC-MS/MS analysis; type: ADME, organism-based; settings: in vivo
[13] = AUC (0 to t) in male Sprague-Dawley rat at 20 mg/kg, ip measured after 24 hrs by LC-MS/MS analysis; type: ADME, organism-based; settings: in vivo
[14] = Tmax in male Sprague-Dawley rat at 20 mg/kg, ip measured after 24 hrs by LC-MS/MS analysis; type: ADME, organism-based; settings: in vivo
NCI-H460 [15] = assay: Inhibition of colony formation in human NCI-H460 cells exogenously expressing wildtype DOT1L (unknown origin) (1 to 416 residues) at 5 uM incubated for 7 to 14 days by crystal violet staining based light microscopic analysis relative to control; type: functional; settings: time 7-14 day
NCI-H460 [16] = assay: Antiinvasive activity against human NCI-H460 cells exogenously expressing wildtype DOT1L (unknown origin) (1 to 416 residues) assessed as decrease in number of invading cells at 5 uM incubated for 72 hrs by crystal violet staining based transwell invasion assay relative to control; type: functional; parameters: scale not given: the % may be the effect or the level left
NCI-H460 [17] = assay: Inhibition of MAPK/ERK signaling pathway in human NCI-H460 cells exogenously expressing wildtype DOT1L (unknown origin) (1 to 416 residues) assessed as decrease in RAF1 expression at 5 uM by Western blot analysis; type: cell-based
NCI-H460 [18] = assay: Inhibition of colony formation in human NCI-H460 cells exogenously expressing wildtype DOT1L (unknown origin) (1 to 416 residues) at 2.5 to 5 uM incubated for 7 to 14 days by crystal violet staining based light microscopic analysis; type: functional, cell-based; settings: dose 2.5-5 µM, time 7-14 day
NCI-H460 [19] = assay: Antiinvasive activity against DOT1L knockdown human NCI-H460 cells assessed as decrease in number of invading cells at 2.5 to 5 uM incubated for 72 hrs by crystal violet staining based transwell invasion assay; type: functional, cell-based; settings: dose 2.5-5 µM
NCI-H460 [20] = assay: Effect on H3K27me3 expression in human NCI-H460 cells exogenously expressing wildtype DOT1L (unknown origin) (1 to 416 residues) at 5 uM by Western blot analysis; type: functional, cell-based
NCI-H460 [21] = assay: Inhibition of sphere formation in human NCI-H460 cells exogenously expressing wildtype DOT1L (unknown origin) (1 to 416 residues) assessed as reduction in self-renewal at 5 uM incubated for 7 to 14 days by inverted microscopic analysis relative to control; type: functional; settings: time 7-14 day
[22] = Clearance in male Sprague-Dawley rat at 20 mg/kg, iv measured after 24 hrs by LC-MS/MS analysis; type: ADME, organism-based; settings: in vivo
NCI-H460 [23] = assay: Effect on H3K9me2 expression in human NCI-H460 cells exogenously expressing DOT1L R231Q mutant (unknown origin) (1 to 416 residues) at 5 uM by Western blot analysis; type: functional, cell-based
[24] = Cmax in male Sprague-Dawley rat at 20 mg/kg, iv measured after 24 hrs by LC-MS/MS analysis; type: ADME, organism-based; settings: in vivo
NCI-H460 [25] = assay: Effect on H3K4me1 expression in human NCI-H460 cells exogenously expressing wildtype DOT1L (unknown origin) (1 to 416 residues) at 5 uM by Western blot analysis; type: functional, cell-based
[26] = target: Dual specificity mitogen-activated protein kinase kinase; MEK1/2 (Homo sapiens) (UniProt P36507+Q02750); assay: Inhibition of MEK phosphorylation in human NCI-H460 cells exogenously expressing wildtype DOT1L (unknown origin) (1 to 416 residues) at 5 uM by Western blot analysis; type: cell-based
Dual specificity mitogen-activated protein kinase kinase; MEK1/2 (Homo sapiens), sequence (P36507 whole entry, looked up, the tested form may be a part): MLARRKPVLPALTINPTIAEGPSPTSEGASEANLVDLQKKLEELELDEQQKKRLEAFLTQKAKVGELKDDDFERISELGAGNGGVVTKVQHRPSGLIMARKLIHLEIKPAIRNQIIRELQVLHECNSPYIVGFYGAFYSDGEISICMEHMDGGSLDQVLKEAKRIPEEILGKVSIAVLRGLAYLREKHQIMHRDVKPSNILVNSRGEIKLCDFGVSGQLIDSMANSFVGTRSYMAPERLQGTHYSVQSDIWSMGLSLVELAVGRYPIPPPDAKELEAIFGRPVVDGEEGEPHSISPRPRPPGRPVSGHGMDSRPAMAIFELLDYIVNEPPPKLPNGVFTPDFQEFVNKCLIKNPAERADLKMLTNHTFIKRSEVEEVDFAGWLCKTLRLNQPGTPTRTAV
Dual specificity mitogen-activated protein kinase kinase; MEK1/2 (Homo sapiens), sequence (Q02750 whole entry, looked up, the tested form may be a part): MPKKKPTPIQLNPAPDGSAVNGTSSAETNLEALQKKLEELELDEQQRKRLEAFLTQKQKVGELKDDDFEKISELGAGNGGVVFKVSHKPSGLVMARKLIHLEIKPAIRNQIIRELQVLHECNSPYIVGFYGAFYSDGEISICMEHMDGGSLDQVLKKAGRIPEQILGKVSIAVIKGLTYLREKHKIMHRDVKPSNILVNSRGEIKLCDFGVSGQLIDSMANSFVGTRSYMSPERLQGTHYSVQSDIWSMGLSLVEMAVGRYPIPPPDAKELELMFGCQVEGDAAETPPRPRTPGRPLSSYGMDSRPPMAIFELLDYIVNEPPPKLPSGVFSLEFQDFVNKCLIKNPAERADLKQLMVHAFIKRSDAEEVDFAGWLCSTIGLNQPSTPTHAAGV

NCI-H460 [27] = assay: Inhibition of colony formation in human NCI-H460 cells exogenously expressing DOT1L R231Q mutant (unknown origin) (1 to 416 residues) at 2.5 to 5 uM incubated for 7 to 14 days by crystal violet staining based light microscopic analysis; type: functional, cell-based; settings: dose 2.5-5 µM, time 7-14 day
NCI-H460 [28] = assay: Effect on H3K36me2 expression in human NCI-H460 cells exogenously expressing wildtype DOT1L (unknown origin) (1 to 416 residues) at 5 uM by Western blot analysis; type: functional, cell-based
[29] = Toxicity in male BALB/c-nu mouse model xenografted with human NCI-H460 cells harboring DOT1L R231Q mutant assessed as effect on body weight at 20 mg/kg, ip administered five times a week for 3 weeks; type: organism-based; settings: in vivo, 504 h
NCI-H460 [30] = assay: Potency index, ratio of SGC0946 IC50 to test compound IC50 for antiproliferative activity against human NCI-H460 cells harboring DOT1L R231Q mutant (unknown origin) (1 to 416 residues) assessed as inhibition of cell proliferation incubated for 72 hrs by CCK-8 assay; type: functional
[31] = Half-life in male Sprague-Dawley rat at 20 mg/kg, iv measured after 24 hrs by LC-MS/MS analysis; type: ADME, organism-based; settings: in vivo

With CC(C)(C)c1ccc(NC(=O)NCCCN(CCCN2CCOCC2)CC2(O)CCN(c3nc(Cl)nc4sccc34)C2)cc1 (stereo unspecified) the Vd [1] was 14.4 L/kg, the inhibition (NCI-H460 [2]) was “inactive” and the inhibition (NCI-H460 [3]) was “inactive”. For the same compound, the Activity (NCI-H460 [4]) was “Active”, the Activity (NCI-H460 [5]) was “Active” and the Activity (NCI-H460 [6]) was “inactive”. For the same compound, the IC50 (NCI-H460 [7]) was 2.85 µM, the AUC(0-t) at 24 h [8] was 5980 ng·h/mL and the MRT inf [9] was 5.42 h. For the same compound, the Activity (NCI-H460 [10]) was “Active”, the Activity [11] was “Non-Toxic” and the AUC(0-inf) [12] was 6200 ng·h/mL. The AUC(0-t) at 24 h [13] was 5280 ng·h/mL, the Tmax [14] was 0.25 h and the inhibition at 5 µM (NCI-H460 [15]) was 42%. The Activity (NCI-H460 [16]) was 61.5%, the inhibition (NCI-H460 [17]) was “inactive” and the inhibition (NCI-H460 [18]) was “Active”. The Activity (NCI-H460 [19]) was “inactive”, the Activity (NCI-H460 [20]) was “inactive” and the inhibition at 5 µM (NCI-H460 [21]) was 68.9%. The clearance [22] was 55.2 mL/min/kg, the Activity (NCI-H460 [23]) was “inactive” and the Cmax [24] was 3000 ng/mL. For the same compound, the Activity (NCI-H460 [25]) was “inactive”, the inhibition [26] was “inactive” and the inhibition (NCI-H460 [27]) was “Active”. For the same compound, the Activity (NCI-H460 [28]) was “inactive”, the Activity [29] was “Non-Toxic” and the “Ratio IC50” value (NCI-H460 [30]) was 1.3. The half-life [31] was 3.9 h.
